Patent US10413505B1, “Pharmaceutical compositions and methods of using the same” (priority 2017, dated 2019)

Experiments:
[1] = Example 2 urinary pharmacokinetics, normal renal function vs severe renal impairment; details: single intranasal 160 mg cocaine HCl; for 0 to 32 hour urinary recovery (geometric mean) / 0 to 32 hour urinary recovery (mean) / 0 to 32 hour urinary recovery (median): metabolites as cocaine equivalents
Method: For the urine analysis of cocaine, BE, and EME, individual urinary recoveries for each analyte were determined over each collection interval as the product of the urine concentration times the urine volume. The total recoveries were determined as the sum of the recoveries over all the intervals. Total urinary recoveries were also expressed as the percentage of the administered dose, after correction for the molecular weight of each analyte. The renal clearances of cocaine, BE, and EME were determined as the urinary recovery (in μg) divided by the plasma AUC over the same time interval (the longest period for which both plasma and urine measurements were available).
Urine was collected prior to dosing and from 0-2, 2-4, 4-8, 8-12, 12-24, and 24-32 hours after the beginning of dose application. […] Testing methods used were consistent with those used by inVentiv Health Clinical Lab, Inc., Miami, Fla., U.S.A. Urinary pharmacokinetic parameters included total urinary recovery (μg), urinary recovery as a percentage of dose, and CLr.

[2] = Example 1 urinary pharmacokinetics after intranasal administration; type: in vivo, human; details: healthy subjects; single intranasal 160 mg cocaine HCl; urine 0-12 h; metabolites as cocaine equivalents
Method: A single dose of a pharmaceutical composition was administered to both nostrils using cottonoid pledgets. […] Each pledget absorbed approximately 1 mL of pharmaceutical composition (i.e., 40 mg cocaine hydrochloride). Two soaked pledgets were placed into each nasal cavity of the subject and against the anterior septum for 20 minutes; thus, a total dose of 160 mg of cocaine hydrochloride was administered.
Urine samples were collected pre-dose and at the following intervals from the start of intranasal application of the pharmaceutical composition: 0-2 hours, 2-4 hours, 4-8 hours, and 8-12 hours. […] A 25-μL aliquot of each urine sample was processed by liquid-liquid extraction.
Urinary pharmacokinetic parameters were analyzed using noncompartmental methods.

[3] = Example 3 plasma pharmacokinetics, normal hepatic function vs hepatic impairment
[4] = severe renal impairment, listed as Ecgonine Methyl Ester
[5] = normal hepatic function, single intranasal 160 mg cocaine HCl, plasma
[6] = plasma, subjects with hepatic impairment, single intranasal dose

Structure (SMILES): COC(=O)[C@@H]1[C@H]2CC[C@@H](C[C@@H]1O)N2C [EME, ecgonine methyl ester]
- 0-32 h Urinary Recovery (geometric mean) ([1]; normal renal function): 894.9 µg
- 0-32 h Urinary Recovery (mean) ([1]; normal renal function): 1095 µg
- 0-32 h Urinary Recovery (median) ([1]; normal renal function): 892.8 µg
- Renal Clearance, CLr (geometric mean) ([1]; normal renal function): 18.1 L/h
- Renal Clearance, CLr (mean) ([1]; normal renal function): 19.1 L/h
- Renal Clearance, CLr (median) ([1]; normal renal function): 21.4 L/h
- Renal Clearance, geometric mean ([1]; normal renal function): 302.2 mL/min
- Renal Clearance, mean ([1]; normal renal function): 317.8 mL/min
- Renal Clearance, median ([1]; normal renal function): 356.1 mL/min
- 0 to 32 hour urinary recovery (geometric mean) ([1]; normal renal function): 0.954 % of administered dose
- 0 to 32 hour urinary recovery (mean) ([1]; normal renal function): 1.17 % of administered dose
- 0 to 32 hour urinary recovery (median) ([1]; normal renal function): 0.952 % of administered dose
- 0 to 32 hour urinary recovery (mean) ([1]; normal renal function, listed as Ecgonine Methyl Ester): 1.167 % of administered dose
- 0-32 h Urinary Recovery (geometric mean) ([1]; severe renal impairment): 1177.8 µg
- 0-32 h Urinary Recovery (mean) ([1]; severe renal impairment): 1425 µg
- 0-32 h Urinary Recovery (median) ([1]; severe renal impairment): 1104 µg
- Renal Clearance, CLr (geometric mean) ([1]; severe renal impairment): 4.23 L/h
- Renal Clearance, CLr (mean) ([1]; severe renal impairment): 4.95 L/h
- Renal Clearance, CLr (median) ([1]; severe renal impairment): 4.05 L/h
- Renal Clearance, geometric mean ([1]; severe renal impairment): 70.6 mL/min
- Renal Clearance, mean ([1]; severe renal impairment): 82.5 mL/min
- Renal Clearance, median ([1]; severe renal impairment): 67.6 mL/min
- 0 to 32 hour urinary recovery (geometric mean) ([1]; severe renal impairment): 1.26 % of administered dose
- 0 to 32 hour urinary recovery (mean) ([1]; severe renal impairment): 1.52 % of administered dose
- 0 to 32 hour urinary recovery (median) ([1]; severe renal impairment): 1.177 % of administered dose
- 0 to 32 hour urinary recovery (geometric mean) [1, 4]: 1.255 % of administered dose
- 0 to 32 hour urinary recovery (mean) [1, 4]: 1.519 % of administered dose
- Total Urinary Recovery (Geometric mean) [2]: 252 µg
- Total Urinary Recovery (Mean) [2]: 275 µg
- Total Urinary Recovery (Median) [2]: 276 µg
- Urinary Recovery (Geometric mean) [2]: 0.240 % dose
- Urinary Recovery (Mean) [2]: 0.262 % dose
- Urinary Recovery (Median) [2]: 0.263 % dose
- AUClast, times higher than normal subjects ([3]; Grade B hepatic impairment): approximately 2.4 times
- AUClast, times higher than normal subjects ([3]; Grade C hepatic impairment): 2.2 times
- AUC0→t (Geometric mean) [3, 5]: 61.2 ng·h/mL
- AUC0→t (Max) [3, 5]: 198 ng·h/mL
- AUC0→t (Mean) [3, 5]: 72.9 ng·h/mL
- AUC0→t (Median) [3, 5]: 59.1 ng·h/mL
- AUC0→t (Min) [3, 5]: 24.5 ng·h/mL
- AUC0→∞ (Geometric mean) [3, 5]: 76.1 ng·h/mL
- AUC0→∞ (Max) [3, 5]: 212 ng·h/mL
- AUC0→∞ (Mean) [3, 5]: 89.6 ng·h/mL
- AUC0→∞ (Median) [3, 5]: 72.9 ng·h/mL
- AUC0→∞ (Min) [3, 5]: 31.5 ng·h/mL
- Clast (Geometric mean) [3, 5]: 1.67 ng/mL
- Clast (Max) [3, 5]: 3.72 ng/mL
- Clast (Mean) [3, 5]: 1.85 ng/mL
- Clast (Median) [3, 5]: 1.60 ng/mL
- Clast (Min) [3, 5]: 1.00 ng/mL
- Cmax (Geometric mean) [3, 5]: 8.75 ng/mL
- Cmax (Max) [3, 5]: 26.8 ng/mL
- Cmax (Mean) [3, 5]: 10.0 ng/mL
- Cmax (Median) [3, 5]: 7.81 ng/mL
- Cmax (Min) [3, 5]: 3.83 ng/mL
- Tlast (Geometric mean) [3, 5]: 15.4 h
- Tlast (Max) [3, 5]: 28.0 h
- Tlast (Mean) [3, 5]: 16.5 h
- Tlast (Median) [3, 5]: 12.0 h
- Tlast (Min) [3, 5]: 600 min
- Tmax (Geometric mean) [3, 5]: 1.33 h
- Tmax (Max) [3, 5]: 3.00 h
- Tmax (Mean) [3, 5]: 1.45 h
- Tmax (Median) [3, 5]: 1.25 h
- Tmax (Min) [3, 5]: 30 min
- t1/2 (Geometric mean) [3, 5]: 5.99 h
- t1/2 (Max) [3, 5]: 9.97 h
- t1/2 (Mean) [3, 5]: 6.27 h
- t1/2 (Median) [3, 5]: 5.69 h
- t1/2 (Min) [3, 5]: 250 min
- AUC0→t (Geometric mean) [3, 6]: 146 ng·h/mL
- AUC0→t (Mean) [3, 6]: 185 ng·h/mL
- AUC0→t (Median) [3, 6]: 140 ng·h/mL
- AUC0→∞ (Geometric mean) [3, 6]: 212 ng·h/mL
- AUC0→∞ (Mean) [3, 6]: 233 ng·h/mL
- AUC0→∞ (Median) [3, 6]: 185 ng·h/mL
- Clast (Geometric mean) [3, 6]: 1.57 ng/mL
- Clast (Mean) [3, 6]: 1.65 ng/mL
- Clast (Median) [3, 6]: 1.67 ng/mL
- Cmax (Geometric mean) [3, 6]: 11.3 ng/mL
- Cmax (Mean) [3, 6]: 16.1 ng/mL
- Cmax (Median) [3, 6]: 9.11 ng/mL
- Tlast (Geometric mean) [3, 6]: 26.3 h
- Tlast (Mean) [3, 6]: 27.7 h
- Tlast (Median) [3, 6]: 32.0 h
- Tmax (Geometric mean) [3, 6]: 2.90 h
- Tmax (Mean) [3, 6]: 3.84 h
- Tmax (Median) [3, 6]: 4.00 h
- t1/2 (Geometric mean) [3, 6]: 8.67 h
- t1/2 (Mean) [3, 6]: 9.26 h
- t1/2 (Median) [3, 6]: 8.3 h
